{"source": "paper PMC5893428", "about": "“Heligmosomoides polygyrus Venom Allergen-like Protein-4 (HpVAL-4) is a sterol binding protein” (International Journal for Parasitology, 2018)", "biological_target": "T1, HpVAL-4 (Heligmosomoides polygyrus, UniProt A0A183GMB4)", "T1 construct": "mature protein, Arabidopsis chitinase signal peptide for secretion, no tag mentioned; Nicotiana benthamiana leaf apoplast; N-glycosylated", "T1 sequence (A0A183GMB4 entry or part of it)": "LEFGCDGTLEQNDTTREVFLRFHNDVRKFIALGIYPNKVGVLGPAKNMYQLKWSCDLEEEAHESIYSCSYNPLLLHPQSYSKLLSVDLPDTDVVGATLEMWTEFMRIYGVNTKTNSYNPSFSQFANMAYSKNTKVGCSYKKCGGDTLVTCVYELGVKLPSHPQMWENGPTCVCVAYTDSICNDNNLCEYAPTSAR", "assay": "radioligand binding, adsorption to Q-Sepharose, scintillation counting", "data": [{"smiles": "CC(C)CCC[C@@H](C)[C@H]1CC[C@H]2[C@@H]3CC=C4C[C@@H](O)CC[C@]4(C)[C@H]3CC[C@]12C", "note": "[cholesterol]", "values": [{"measurement": "Kd", "value": 1530, "unit": "nM"}]}]}
